In patent US9051310B2, “Nicotinamide derivative or salt thereof” (FUJIFILM Corporation, priority 2011, dated 2015):

Legend:
[1] = molecular target: T1, glutathione S-transferase (GST)-linked full-length human Syk protein (Homo sapiens, UniProt P43405); assay: Syk enzyme assay; type: biochemical; conditions: 0.83 nM Syk, time-resolved fluorescence; read-out: IC50 of Syk-inhibitory activity
T1 construct: glutathione S-transferase (GST)-linked full-length human Syk protein; purchased Carna Biosciences; host or cells: Baculovirus expression system
Outline: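 Phosphotyrosine on a biotin-peptide substrate (0.5 μM) was read by time-resolved fluorescence at 615 and 665 nm with Eu-anti-pTyr antibody and APC-streptavidin after 1 h EDTA stop.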

[2] = tested on: THP-1 cells (TNFα secretion on human IgG-coated plate); assay: TNFα generation assay; type: cell-based; conditions: IFN-γ differentiated THP-1 cells, 7 hours, AlphaLISA, read-out: IC50 of TNFα generation inhibitory activity
Outline: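 THP-1 cells were differentiated with 10 ng/ml IFN-γ for 2 days, then preincubated with compound for 30 min at room temperature. They were then plated at 5×10^4 cells/well on plates coated with human IgG (10 μg/ml). TNFα secreted over 7 h of culture was quantified by AlphaLISA.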

SMILES	IC50 [1] [nM]	IC50 [2] [nM]
COc1ncc(Nc2nc(N[C@@H]3CCOC[C@@H]3N)c(F)cc2C(N)=O)cc1-n1ccnn1 [Example 2-215, 6-(((3R,4R)-3-aminotetrahydro-2H-pyran-4-yl)amino)-5-fluoro-2-((6-methoxy-5-(1H-1,2,3-triazol-1-yl)pyridin-3-yl)amino)nicotinamide]	10 to 50	130 to 200
Cc1ccc(Nc2nc(N[C@@H]3CCOC[C@@H]3N)c(F)cc2C(N)=O)cn1 [Example 2-219, 6-(((3R,4R)-3-aminotetrahydro-2H-pyran-4-yl)amino)-5-fluoro-2-((6-methylpyridin-3-yl)amino)nicotinamide]	10 to 50	130 to 200
Cc1ncc(Nc2nc(N[C@H](C3CC3)[C@H](C)N)c(F)cc2C(N)=O)cc1F [Example 2-220, 6-(((1R,2S)-2-amino-1-cyclopropylpropyl)amino)-5-fluoro-2-((5-fluoro-6-methylpyridin-3-yl)amino)nicotinamide]	10 to 50	130 to 200
CC[C@@H](Nc1nc(Nc2cnc(C)c(F)c2)c(C(N)=O)cc1F)[C@H](C)N [Example 2-222, 6-(((2S,3R)-2-aminopentan-3-yl)amino)-5-fluoro-2-((5-fluoro-6-methylpyridin-3-yl)amino)nicotinamide]	10 to 50	130 to 200
CCC[C@@H](Nc1nc(Nc2cnc(C)c(F)c2)c(C(N)=O)cc1F)[C@H](C)N [Example 2-223, 6-(((2S,3R)-2-aminohexan-3-yl)amino)-5-fluoro-2-((5-fluoro-6-methylpyridin-3-yl)amino)nicotinamide]	< 10	130 to 200
Cc1ncc(Nc2nc(N[C@@H]3CCOC[C@@H]3N)c(F)cc2C(N)=O)cc1F [Example 2-225, 6-(((3R,4R)-3-aminotetrahydro-2H-pyran-4-yl)amino)-5-fluoro-2-((5-fluoro-6-methylpyridin-3-yl)amino)nicotinamide]	10 to 50	130 to 200
COc1cc(Nc2nc(N[C@H](C)[C@@H](N)C3CC3)c(F)cc2C(N)=O)cc(OC)c1 [Example 2-229, 6-(((1S,2R)-1-amino-1-cyclopropylpropan-2-yl)amino)-2-((3,5-dimethoxyphenyl)amino)-5-fluoronicotinamide]	10 to 50	130 to 200
CCn1ncc2cc(Nc3nc(N[C@H](C)[C@@H](N)C4CC4)c(F)cc3C(N)=O)ccc21 [Example 2-230, 6-(((1S,2R)-1-amino-1-cyclopropylpropan-2-yl)amino)-2-((1-ethyl-1H-indazol-1-5-yl)amino)-5-fluoronicotinamide]	10 to 50	65 to 130
C[C@H](N)[C@H](Nc1nc(Nc2ccnc(N3CCOCC3)c2F)c(C(N)=O)cc1F)C1CC1 [Example 2-233, 6-(((1R,2S)-2-amino-1-cyclopropylpropyl)amino)-5-fluoro-2-((3-fluoro-2-morpholinopyridin-4-yl)amino)nicotinamide]	10 to 50	130 to 200
Cc1nn(C)c2ncc(Nc3nc(N[C@@H]4CCCC[C@@H]4N)c(F)cc3C(N)=O)cc12 [Example 2-239, 6-(((1R,2S)-2-aminocyclohexyl)amino)-2-((1,3-dimethyl-1H-pyrazolo[3,4-b]pyridin-5-yl)amino)-5-fluoronicotinamide]	10 to 50	130 to 200
Cc1nn(C)c2ncc(Nc3nc(N[C@@H](CN)CC(C)C)c(F)cc3C(N)=O)cc12 [Example 2-240, (R)-6-((1-amino-4-methylpentan-2-yl)amino)-2-((1,3-dimethyl-1H-pyrazolo[3,4-b]pyridin-5-yl)amino)-5-fluoronicotinamide]	< 10	130 to 200
CCC[C@@H](Nc1nc(Nc2cnc3c(c2)c(C)nn3C)c(C(N)=O)cc1F)[C@H](C)N [Example 2-242, 6-(((2S,3R)-2-aminohexan-3-yl)amino)-2-((1,3-dimethyl-1H-pyrazolo[3,4-b]pyridin-5-yl)amino)-5-fluoronicotinamide]	10 to 50	130 to 200
Cc1nn(C)c2ncc(Nc3nc(N[C@H](C4CC4)[C@H](C)N)c(F)cc3C(N)=O)cc12 [Example 2-243, 6-(((1R,2S)-2-amino-1-cyclopropylpropyl)amino)-2-((1,3-dimethyl-1H-pyrazolo[3,4-b]pyridin-5-yl)amino)-5-fluoronicotinamide]	10 to 50	130 to 200
COc1nn(C)c2ncc(Nc3nc(N[C@@H]4CCCC[C@@H]4N)c(F)cc3C(N)=O)cc12 [Example 2-249, 6-(((1R,2S)-2-aminocyclohexyl)amino)-5-fluoro-2-((3-methoxy-1-methyl-1H-pyrazolo[3,4-b]pyridin-5-yl)amino)nicotinamide]	< 10	65 to 130
COc1nn(C)c2ncc(Nc3nc(N[C@H](C4CC4)[C@H](C)N)c(F)cc3C(N)=O)cc12 [Example 2-253, 6-(((1R,2S)-2-amino-1-cyclopropylpropyl)amino)-5-fluoro-2-((3-methoxy-1-methyl-1H-pyrazolo[3,4-b]pyridin-5-yl)amino)nicotinamide]	< 10	65 to 130
CCCC[C@@H](Nc1nc(Nc2cnc3c(c2)c(OC)nn3C)c(C(N)=O)cc1F)[C@H](C)N [Example 2-254, 6-(((2S,3R)-2-aminoheptan-3-yl)amino)-5-fluoro-2-((3-methoxy-1-methyl-1H-pyrazolo[3,4-b]pyridin-5-yl)amino)nicotinamide]	< 10	130 to 200
COc1nn(C)c2ncc(Nc3nc(N[C@H](CC(C)C)[C@H](C)N)c(F)cc3C(N)=O)cc12 [Example 2-255, 6-(((2S,3R)-2-amino-5-methylhexan-3-yl)amino)-5-fluoro-2-((3-methoxy-1-methyl-1H-pyrazolo[3,4-b]pyridin-5-yl)amino)nicotinamide]	< 10	130 to 200
CC[C@H](N)[C@@H](CC)Nc1nc(Nc2ccc3c(cnn3CCOC)c2)c(C(N)=O)cc1F [Example 2-266, 6-(((3R,4S)-4-aminohexan-3-yl)amino)-5-fluoro-2-((1-(2-methoxyethyl)-1H-indazol-5-yl)amino)nicotinamide]	< 10	65 to 130
CCOC[C@@H](Nc1nc(Nc2cc(OC)cc(OC)c2)c(C(N)=O)cc1F)[C@H](C)N [Example 2-268, 6-(((2S,3S)-3-amino-1-ethoxybutan-2-yl)amino)-2-((3,5-dimethoxyphenyl)amino)-5-fluoronicotinamide]	10 to 50	130 to 200
COc1cc(Nc2nc(N[C@H](c3ccc(F)cc3)[C@H](C)N)c(F)cc2C(N)=O)cc(OC)c1 [Example 2-269, 6-(((1R,2S)-2-amino-1-(4-fluorophenyl)propyl)amino)-2-((3,5-dimethoxyphenyl)amino)-5-fluoronicotinamide]	< 10	65 to 130
CNc1ncc(Nc2nc(N[C@@H]3CCCC[C@@H]3N)c(F)cc2C(N)=O)cc1F [Example 2-273, 6-(((1R,2S)-2-aminocyclohexyl)amino)-5-fluoro-2-((5-fluoro-6-(methylamino)pyridin-3-yl)amino)nicotinamide]	< 10	65 to 130
CNc1ncc(Nc2nc(N[C@H](C3CC3)[C@H](C)N)c(F)cc2C(N)=O)cc1F [Example 2-274, 6-(((1R,2S)-2-amino-1-cyclopropylpropyl)amino)-5-fluoro-2-((5-fluoro-6-(methylamino)pyridin-3-yl)amino)nicotinamide]	10 to 50	130 to 200
